Reference: publication PMC8331180, “Development of antibacterial compounds that constrain evolutionary pathways to resistance” (eLife, 2021)
Numbering of substitutions follows the chain as printed. Values joined by “and” are separate entries in the source; they are usually repeats but may differ in a detail not shown here. Identical values can stand only once. Like-named read-outs stand apart in the source and are kept apart here.

Experiments:
E. coli WT DHFR = molecular target: T1, E. coli WT DHFR (Escherichia coli, UniProt P0ABQ4); experiment: biochemical; details: for Ki: Ki value, E. coli WT DHFR, Ki converted from IC50; for inhibition at 200 µM: read-out: inhibition of DHFR catalytic activity
T1 construct: made in house
T1 sequence (P0ABQ4 1-159): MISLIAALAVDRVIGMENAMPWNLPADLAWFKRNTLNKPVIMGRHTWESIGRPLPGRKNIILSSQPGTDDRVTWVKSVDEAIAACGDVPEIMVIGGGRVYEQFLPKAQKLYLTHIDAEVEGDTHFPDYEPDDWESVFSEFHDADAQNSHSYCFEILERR

E. coli DHFR P21L mutant = molecular target: T2, E. coli DHFR P21L mutant (Escherichia coli, UniProt P0ABQ4, P21L); experiment: biochemical; details: for Ki: Ki value, E. coli P21L DHFR, Ki converted from IC50; for inhibition at 200 µM: read-out: inhibition of DHFR catalytic activity
T2 construct: made in house
T2 sequence (P0ABQ4 1-159 P21L): T1 sequence (P0ABQ4 1-159) with P21L

E. coli DHFR A26T mutant = molecular target: T3, E. coli DHFR A26T mutant (Escherichia coli, UniProt P0ABQ4, A26T); experiment: biochemical; details: for Ki: Ki value, E. coli A26T DHFR, Ki converted from IC50; for inhibition at 200 µM: read-out: inhibition of DHFR catalytic activity
T3 construct: made in house
T3 sequence (P0ABQ4 1-159 A26T): T1 sequence (P0ABQ4 1-159) with A26T

E. coli DHFR L28R mutant = molecular target: T4, E. coli DHFR L28R mutant (Escherichia coli, UniProt P0ABQ4, L28R); experiment: biochemical; details: for Ki: Ki value, E. coli L28R DHFR, Ki converted from IC50; for inhibition at 200 µM: read-out: inhibition of DHFR catalytic activity
T4 construct: made in house
T4 sequence (P0ABQ4 1-159 L28R): T1 sequence (P0ABQ4 1-159) with L28R

[1] = tested on: E. coli strain with chromosomal P21L DHFR; experiment: microbe, parasite or virus in culture; type: cell-based; details: Escherichia coli, read-out: Bacterial growth inhibition IC50
[2] = tested on: E. coli strain with chromosomal A26T DHFR; experiment: microbe, parasite or virus in culture; type: cell-based; details: Escherichia coli, read-out: Bacterial growth inhibition IC50
[3] = tested on: E. coli strain with chromosomal L28R DHFR; experiment: microbe, parasite or virus in culture; type: cell-based; details: for IC50: Escherichia coli, read-out: Bacterial growth inhibition IC50
WT E. coli strain [4] = experiment: microbe, parasite or virus in culture; details: Escherichia coli
Human DHFR = molecular target: T5, Human DHFR (Homo sapiens, UniProt P00374); experiment: biochemical; type: biochemical; details: for Ki: Human WT DHFR, NT means no inhibition was detected at the maximal compound concentration tested
T5 construct: purchased Sigma Aldrich

[5] = tested on: CD15-3-evolved E. coli strains; experiment: microbe, parasite or virus in culture; type: cell-based; details: Escherichia coli
E. coli BW27783 = type: cell-based
WT E. coli strain [6] = details: read-out: Bacterial growth inhibition IC50; WT (naive) E. coli strain, M9 medium, 37°C
[7] = tested on: WT and evolved E. coli cells; experiment: DIC imaging of cell length; details: 42°C
[8] = molecular target: T6, E. coli DHFR P21L-A26T mutant (Escherichia coli, UniProt P0ABQ4, A26T/P21L); experiment: biochemical
T6 construct: made in house
T6 sequence (P0ABQ4 1-159 P21L/A26T): T1 sequence (P0ABQ4 1-159) with P21L, A26T

[9] = molecular target: T7, E. coli DHFR P21L-L28R mutant (Escherichia coli, UniProt P0ABQ4, L28R/P21L); experiment: biochemical
T7 construct: made in house
T7 sequence (P0ABQ4 1-159 P21L/L28R): T1 sequence (P0ABQ4 1-159) with P21L, L28R

[10] = molecular target: T8, E. coli DHFR A26T-L28R mutant (Escherichia coli, UniProt P0ABQ4, A26T/L28R); experiment: biochemical
T8 construct: made in house
T8 sequence (P0ABQ4 1-159 A26T/L28R): T1 sequence (P0ABQ4 1-159) with A26T, L28R

[11] = single fixed concentration of 200 µM, WT DHFR
[12] = single fixed concentration of 200 µM, P21L DHFR
[13] = single fixed concentration of 200 µM, A26T DHFR
[14] = single fixed concentration of 200 µM, L28R DHFR
[15] = read-out: Bacterial growth inhibition IC50, WT (naive) E. coli strain, M9 medium, 37°C

Structure (SMILES)	Ki (E. coli WT DHFR)	Ki (E. coli DHFR P21L mutant)	Ki (E. coli DHFR A26T mutant)	Ki (E. coli DHFR L28R mutant)	IC50 [1]	IC50 [2]	IC50 [3]	IC50 (WT E. coli strain [4]; [15])	further results
COc1cc([C@H]2CC(=O)Nc3nc(N)[nH]c(=O)c32)ccc1O [CD08]	6.9 ± 0.6 µM	3200 ± 400 nM	4.9 ± 1.4 µM	3.1 ± 0.6 µM					inhibition at 200 µM (E. coli WT DHFR; [11]): > 30%; inhibition at 200 µM (E. coli DHFR P21L mutant; [12]): > 30%; inhibition at 200 µM (E. coli DHFR A26T mutant; [13]): > 30%; inhibition at 200 µM (E. coli DHFR L28R mutant; [14]): > 30%
COc1ccc([C@@H]2CC(c3c(O)[nH]c(=O)n(C)c3=O)=NN2)cc1O [CD15-2]					125 µM	119 µM	88 µM	129 µM	
Cn1c(=O)[nH]c(O)c(C2=NN[C@H](c3cccc4ccccc34)C2)c1=O [CD15-3]	5.52 µM	2510 nM	3.48 µM	0.98 µM	57 µM	73 µM	48 µM	71.8 µM	inhibitory activity against human DHFR (Human DHFR; CD15-3 17.56–200 µM, 25°C): no inhibitory activity; efficacy relative to TMP on L28R E. coli variant strain ([3]; growth inhibition IC50, better than TMP): about 2.4 fold; IC50 ([5]; CD15-3-evolved strain Evolved 1, M9 media): 132 µM; IC50 ([5]; CD15-3-evolved strain Evolved 2, M9 media): 166 µM; IC50 ([5]; CD15-3-evolved strain Evolved 3, M9 media): 170 µM; IC50 ([5]; range over strains evolved under CD15-3, read-out: IC50 of evolved strains): 132 to 170 µM; effect of folA mix supplement on drug-induced growth inhibition (E. coli BW27783; M9 media with folA mix): partially rescued; effect of inactive D27F DHFR overexpression on drug-induced growth inhibition (E. coli BW27783; pBAD D27F, 0.005% arabinose): no growth recovery; effect of WT DHFR overexpression on drug-induced growth inhibition (E. coli BW27783; pBAD folA, 0.005% arabinose): partially rescued growth; IC50 (WT E. coli strain [6]): 72 µM; median cell length ([7]; WT cells treated at IC50 concentration, 4 hours): 2.34 µm; median cell length ([7]; evolved cells treated at IC50 concentration): 1.26 µm; IC50 (WT E. coli strain [4]; read-out: IC50 against WT and TMP-resistant strains): 50 to 75 µM
Cn1c(=O)[nH]c(O)c(C2=NN[C@H](c3ccc4c(c3)OCO4)C2)c1=O [CD15-4]					92 µM	123 µM	67 µM	302 µM	
COc1cc([C@@H]2CC(c3c(O)[nH]c(=O)n(C)c3=O)=NN2)cc(OC)c1OC [CD15-6]					159 µM	172 µM	167 µM	175 µM	
COc1ccc([C@@H]2CC(c3c(O)[nH]c(=O)n(C)c3=O)=NN2)cc1OC [CD15]	3.35 µM	1420 nM	2.43 µM	1.04 µM	176 µM	197 µM	159 µM	170 µM	inhibition at 200 µM (E. coli WT DHFR; [11]): > 30%; inhibition at 200 µM (E. coli DHFR P21L mutant; [12]): > 30%; inhibition at 200 µM (E. coli DHFR A26T mutant; [13]): > 30%; inhibition at 200 µM (E. coli DHFR L28R mutant; [14]): > 30%; Ki [8]: 3.26 µM; Ki [9]: 560 nM; Ki [10]: 610 nM; Ki (Human DHFR): 380 nM
C[C@H](Oc1ccc(C=C2C(=O)NC(=O)NC2=O)cc1)C(=O)O [CD17-3]					2840 µM	2150 µM	907 µM	2950 µM	
O=C(O)COc1c(Cl)cc(C=C2C(=O)NC(=O)NC2=O)cc1Cl [CD17-4]							1860 µM		
CCOc1cc(C=C2C(=O)NC(=O)NC2=O)ccc1OCC(=O)O [CD17]	8.2 µM and 8.18 µM	3700 nM	6.7 µM and 6.73 µM	3.7 µM and 3.65 µM	5050 µM	1920 µM	932 µM	1770 µM	inhibition at 200 µM (E. coli WT DHFR; [11]): > 30%; inhibition at 200 µM (E. coli DHFR P21L mutant; [12]): > 30%; inhibition at 200 µM (E. coli DHFR A26T mutant; [13]): > 30%; inhibition at 200 µM (E. coli DHFR L28R mutant; [14]): > 30%; Ki [8]: 9.2 µM; Ki [9]: 1370 nM; Ki [10]: 2040 nM; Ki (Human DHFR): 740 nM
CSc1nc2nc(N)nc(N)c2s1 [CD20]									inhibition of DHFR catalytic activity (E. coli WT DHFR; [11]): showed inhibition; inhibition of DHFR catalytic activity (E. coli DHFR P21L mutant; [12]): showed inhibition; inhibition of DHFR catalytic activity (E. coli DHFR A26T mutant; [13]): showed inhibition; inhibition of DHFR catalytic activity (E. coli DHFR L28R mutant; [14]): not
Cc1cc(NS(=O)(=O)c2ccc(N)cc2)no1 [Sulfamethoxazole, reference compound]									IC50 ([5]; CD15-3-evolved cells, cross resistance test, growth rate): 6.7 µM; IC50 (WT E. coli strain [4]): 2.9 µM
COc1cc(Cc2cnc(N)nc2N)cc(OC)c1OC [TMP, trimethoprim, reference compound]									IC50 (WT E. coli strain [4]): 0.4 µg/mL; IC50 (WT E. coli strain [4]; read-out: Bacterial growth inhibition IC50): 1.3 µM
